Source: publication PMC6152618, “Antimicrobial Activity of Truncated and Polyvalent Peptides Derived from the FKCRRWQWRMKKGLA Sequence against Escherichia coli ATCC 25922 and Staphylococcus aureus ATCC 25923” (Molecules : A Journal of Synthetic Chemistry and Natural …, 2017)
Values after ≈ are worked out from the molar mass of the structure shown. Read-outs that look alike come from different tables or passages of the source. Ends that are not written are not given here.

Columns and labels:
[1] = system: Escherichia coli ATCC 25922; format: cell-based
Description: (§1) The MIC was determined using a microdilution assay. In brief, bacterial strains were incubated for 18 to 24 h at 37 °C in an Müller-Hinton (MH) broth until an optical density of 0.15 to 0.30 (620 nm) was obtained. Next, 90 μL of Mueller-Hinton broth (MHB) was mixed with […], and serial dilutions (200, 100, 50, 25, 12.5 and 6.2) were prepared in 96-well microplates (final volume 100 μL/well). Then, 10 μL of inoculum (2 × 10^6 CFU/mL) was added to each well. The final volume in each well was 100 μL. Then they were incubated for 24 h at 37 °C; the absorbance at 620 nm was measured using an Asys Expert Plus ELISA reader. For determining the MBC, a small sample was taken from each well using an inoculation loop, and then was spread on MH agar plates and incubated overnight at 37 °C. MBC was considered on the plate which presented no bacterial growth. Each of these tests was performed twice (n = 2).

[2] = system: Staphylococcus aureus ATCC 25923; format: cell-based
Description: as §1

[3] = system: E. coli ML35; settings: cited from earlier work
Description: (§2) Please note that in this sequence some C-terminal positions have been changed compared to LfcinB 17–31 [38, 48]. The peptide LfcinB 17–31 has been studied for its relative structure and antibacterial activit ...

[4] = system: S. aureus 42D; settings: cited from earlier work
Description: as §2

[5] = system: S. aureus; settings: cited from earlier work
Description: as §2

[6] = system: E coli; settings: cited from earlier work
Description: as §2

[7] = system: S. aureus; set-up: method as in PMID 8980754; settings: cited from earlier work
[8] = system: E. coli L361; set-up: method as in PMID 8980754; settings: cited from earlier work
[9] = system: E. coli O9; set-up: method as in PMID 8980754; settings: cited from earlier work
[10] = microdilution, Mueller-Hinton broth, 24 h at 37 °C, absorbance 620 nm, n = 2
[11] = sample of each well spread on MH agar, overnight 37 °C, no bacterial growth, n = 2

Molecule | MBC E. coli ATCC 25922 ([1]; ATCC 25922) [µM] | MIC E. coli ATCC 25922 ([1]; ATCC 25922, 24 h) [µM] | MBC S. aureus ATCC 25923 ([2]; ATCC 25923) [µM] | MIC S. aureus ATCC 25923 ([2]; ATCC 25923, 24 h) [µM] | other results
CRRWQWRMKKLGA-NH2 [LfcinB 19–31] | 100 | 100 | >200 | >200 | –
FKCRRWQWR-NH2 [LfcinB 17–25] | 100 | 100 | >200 | >200 | –
RWQWRWQWR [(LfcinB 21–25)Pal] | – | 12.5 | – | – | –
FKCRRWQWRMKK-NH2 [LfcinB 17–28] | 200 | 200 | >200 | >200 | –
LfcinB 20–30: literature analogue of LfcinB 20-31 (CVRRAFALECI; lactoferricin B; UniProt P24627 55-65, looked up, fragment) | – | – | – | – | LD99.9 E. coli ML35 [3]: 15 µM; LD99.9 S. aureus 42D [4]: 7.5 µM
CSCC[C@H](NC(=O)[C@H](CCCNC(=N)N)NC(=O)[C@H](Cc1c[nH]c2ccccc12)NC(=O)[C@H](CCC(N)=O)NC(=O)[C@H](Cc1c[nH]c2ccccc12)NC(=O)[C@H](CCCNC(=N)N)NC(=O)[C@H](CCCNC(=N)N)NC(=O)[C@H](CS)NC(=O)[C@H](CCCCN)NC(=O)[C@@H](N)Cc1ccccc1)C(=O)N[C@@H](CCCCN)C(=O)N[C@@H](CCCCN)C(=O)N[C@@H](CC(C)C)C(=O)NCC(=O)N[C@@H](C)C(N)=O [LfcinB 17–31, reference compound] | – | – | – | – | MIC E. coli ATCC 25922 [1, 10]: 200 µM (≈ 399 µg/mL); MBC E. coli ATCC 25922 [1, 11]: >200 µM; MIC S. aureus ATCC 25923 [2, 10]: >200 µM; MBC S. aureus ATCC 25923 [2, 11]: >200 µM
CSCC[C@H](NC(=O)[C@H](CCCNC(=N)N)NC(=O)[C@H](Cc1c[nH]c2ccccc12)NC(=O)[C@H](CCC(N)=O)NC(=O)[C@H](Cc1c[nH]c2ccccc12)NC(=O)[C@H](CCCNC(=N)N)NC(=O)[C@H](CCCNC(=N)N)NC(=O)[C@H](C)NC(=O)[C@H](CCCCN)NC(=O)[C@@H](N)Cc1ccccc1)C(=O)N[C@@H](CCCCN)C(=O)N[C@@H](CCCCN)C(=O)N[C@@H](CC(C)C)C(=O)NCC(=O)N[C@@H](C)C(=O)O [[Ala^19]-LfcinB 17–31] | – | – | >200 | >200 | –
FKCRRWQWRM-NH2 [LfcinB 17–26] | – | – | – | – | MIC E. coli ATCC 25922 [1, 10]: 100 µM; MBC E. coli ATCC 25922 [1, 11]: 200 µM; MIC S. aureus ATCC 25923 [2, 10]: 200 µM; MBC S. aureus ATCC 25923 [2, 11]: 200 µM
RRWQWRMKKLGA [LfcinB 20–31] | >200 | 200 | >200 | >200 | –
FKCRRWQWRMKKL-NH2 [LfcinB 17–29] | >200 | 200 | – | – | –
FKCRRWQWRMK-NH2 [LfcinB 17–27] | 200 | 100 | >200 | >200 | –
(FKARRWQWRMKKLGA)2K-Ahx-C [([Ala^19]-LfcinB 17–31)2] | – | – | – | – | MIC S. aureus ATCC 25923 [2, 10]: 12.5 µM; MBC S. aureus ATCC 25923 [2, 11]: 12.5 µM
SKCYQWQRRMRKLGA | – | – | – | – | MIC S. aureus [5]: > 500 µM; MIC E coli [6]: 252 µM
KCRRWQWRMKKLGA [LfcinB 18–31, …, truncated peptide of LfcinB 17–31] | – | – | – | – | MIC E. coli ATCC 25922 [1, 10]: >200 µM; MBC E. coli ATCC 25922 [1, 11]: >200 µM; MIC S. aureus ATCC 25923 [2, 10]: >200 µM; MBC S. aureus ATCC 25923 [2, 11]: >200 µM
FKCRRWQWR-Homoserine lactone [subfragment 1, literature peptide …-Homoserine lactone] | – | – | – | – | antibacterial activity against S. aureus [7]: > 50 µM; antibacterial activity against E. coli L361 [8]: 10 µM; antibacterial activity against E. coli O9 [9]: 15 µM
FKCRRWQWRMKKLG-NH2 [LfcinB 17–30] | 200 | 200 | >200 | >200 | –
RRWQWR-NH2 [LfcinB 20–25, reference compound] | >200 | >200 | >200 | >200 | –
